These results are taken from PubChem BioAssay (NCI).

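Values below derive from 48-hour exposures of cells grown in 96-well plates, with endpoints linearly interpolated between the two concentrations bracketing the appropriate inhibition level. Abbreviation: GI50, concentration required for 50% inhibition of growth. TGI is the concentration that stops growth completely.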 Where a SMILES comes first, the peptide text is derived from it. The star is where a group is joined. Fmoc = O=C(OCC1c2ccccc2-c2ccccc21)*; OBn = c1ccc(CO*)cc1; tBu = CC(C)(C)*

Some test systems named below: SF-295 CNS; PC-3 prostate; CAKI-1 renal; T-47D breast; MOLT-4 leukemia; HS 578T breast; OVCAR-4 ovarian.
Experiment in all cases: growth of human tumour cells (NCI), 48 h

Regarding `CCCCCCCCCCCCCCCCOC[C@H](COC(c1ccccc1)(c1ccccc1)c1ccccc1)O[P+](=S)OC` (stereo not given in full), the TGI in the test with SF-295 CNS, in the test on PC-3 prostate, in the test with CAKI-1 renal, with T-47D breast, in the test with MOLT-4 leukemia and in the test on HS 578T breast was greater than 100 µM throughout.
For `CC1(O)CC23CC(O)C4(O)C(CC(O)C4(C)C)C(C)(O)C2CCC1C3O` (stereo not given), the TGI in the test with SF-295 CNS, in the test on PC-3 prostate, in the test on CAKI-1 renal, with T-47D breast, in the test on MOLT-4 leukemia and with OVCAR-4 ovarian was greater than 100 µM in each case. The TGI with HS 578T breast is greater than 100 µM.
Consider `CC(OC(C)(C)C)C(NC(=O)OCC1c2ccccc2-c2ccccc21)C(=O)NC(Cc1ccccc1)C(=O)OCc1ccccc1` (stereo not given) (Fmoc-Thr(tBu)-Phe-OBn; configuration not given here), for which the TGI in the test on SF-295 CNS, with PC-3 prostate, in the test on CAKI-1 renal, with T-47D breast, in the test on MOLT-4 leukemia and in the test with OVCAR-4 ovarian was greater than 100 µM each time. The compound further showed a TGI in the test with HS 578T breast greater than 100 µM.
In the case of `CCOC(=O)c1c(-c2ccc(Cl)cc2)c(C#N)c(=S)n(C2OC(COC(C)=O)C(OC(C)=O)C(OC(C)=O)C2OC(C)=O)c1C` (stereo not given), the TGI with SF-295 CNS, in the test with PC-3 prostate, with CAKI-1 renal, with T-47D breast, with MOLT-4 leukemia and in the test on OVCAR-4 ovarian was greater than 100 µM in each case. For the same compound, in the test with HS 578T breast, the TGI was greater than 100 µM. In addition, the GI50 in the test with HS 578T breast is greater than 100 µM.
For the compound `COc1cc(-c2cc(OC)c(OC)c3ccc(Br)cc23)c2cc(Br)ccc2c1OC`, the TGI in the test with SF-295 CNS is 43.8 µM; with PC-3 prostate, 58 µM; in the test on CAKI-1 renal, greater than 100 µM; in the test with T-47D breast, 95.4 µM; with MOLT-4 leukemia, greater than 100 µM; with OVCAR-4 ovarian, 31.1 µM. The compound also showed a TGI in the test on HS 578T breast of 94.4 µM.
In the case of `CCOC(=O)C(NC(=O)c1ccccc1)(Nc1ccc(S(=O)(=O)Nc2cc(C)on2)cc1)C(F)(F)F` (stereo not given), the TGI is greater than 100 µM with SF-295 CNS; greater than 100 µM in the test on PC-3 prostate; greater than 100 µM in the test with CAKI-1 renal; greater than 100 µM in the test on T-47D breast; greater than 100 µM in the test on MOLT-4 leukemia; greater than 10 µM in the test on OVCAR-4 ovarian. In the test with HS 578T breast, the TGI was greater than 100 µM.
With `CN(C)CCCNC(=O)N/N=C/c1ccccn1`, the TGI in the test with SF-295 CNS, with PC-3 prostate, in the test with T-47D breast, in the test with MOLT-4 leukemia, with OVCAR-4 ovarian and in the test on HS 578T breast was greater than 10 µM throughout.
With `CCOC(=O)/C(=C/c1cn(C(C)=O)c2ccccc12)P(=O)(OC)OC`, the TGI in the test with SF-295 CNS is greater than 100 µM; with PC-3 prostate it was greater than 100 µM; with CAKI-1 renal it was greater than 100 µM; with T-47D breast, 60.5 µM; in the test with MOLT-4 leukemia, 74.6 µM; in the test on OVCAR-4 ovarian, greater than 100 µM. Further, the TGI in the test with HS 578T breast was greater than 100 µM.
In the case of `Clc1ccc(-c2nn3c(COc4ccc(OCc5nnc6sc(-c7ccc(Cl)cc7)nn56)c(Cl)c4)nnc3s2)cc1`, the TGI was greater than 100 µM in the test on SF-295 CNS; greater than 100 µM in the test with PC-3 prostate; 75.1 µM in the test with CAKI-1 renal; greater than 100 µM in the test with T-47D breast; greater than 100 µM in the test with MOLT-4 leukemia; greater than 100 µM in the test with OVCAR-4 ovarian. In the test with HS 578T breast, this compound displayed a TGI greater than 100 µM.
Turning to `Cn1c(COC(=O)NC2CCCCC2)c(COC(=O)NC2CCCCC2)c2ccc3ccccc3c21`, the TGI is greater than 100 µM with SF-295 CNS; greater than 100 µM with PC-3 prostate; 70.6 µM in the test on CAKI-1 renal; greater than 100 µM in the test on T-47D breast; greater than 100 µM in the test with MOLT-4 leukemia; greater than 100 µM in the test with OVCAR-4 ovarian. For the same compound, the TGI in the test with HS 578T breast is greater than 100 µM.
For the compound `CC(C)(C)OC(=O)N1CCC2(CC1)C(=O)NCN2c1ccccc1`, the TGI in the test on SF-295 CNS, in the test with PC-3 prostate, in the test on CAKI-1 renal, in the test with T-47D breast, in the test on MOLT-4 leukemia and with OVCAR-4 ovarian was greater than 100 µM in each case. In addition, the TGI in the test with HS 578T breast is greater than 100 µM.
Consider `CN1CCN(Cc2ccc(C(=S)Nc3ccccc3)s2)CC1`, for which the TGI in the test with SF-295 CNS, in the test with PC-3 prostate, in the test with CAKI-1 renal, in the test on T-47D breast, in the test on MOLT-4 leukemia and with OVCAR-4 ovarian was greater than 100 µM throughout. The compound further returned a TGI in the test with HS 578T breast greater than 100 µM.
In the case of `N#Cc1nc(-c2ccsc2)oc1N`, the TGI in the test with PC-3 prostate, in the test with CAKI-1 renal, in the test with MOLT-4 leukemia and in the test with HS 578T breast was greater than 100 µM each time.
For `CCCCCCCCCCCCCCCC[N+](C)(C)CCl`, the TGI is 6.06 µM in the test with SF-295 CNS; 7.96 µM in the test on PC-3 prostate; 8.74 µM in the test with CAKI-1 renal; 23.6 µM with T-47D breast; 8.44 µM with OVCAR-4 ovarian; 5.26 µM in the test on HS 578T breast.
`CSC1=C(C)C(/C=N/Nc2ccc([N+](=O)[O-])cc2)=C(C)N(c2ccccc2)S1(=O)=O`: the TGI with SF-295 CNS, with PC-3 prostate, in the test on CAKI-1 renal, with T-47D breast, with MOLT-4 leukemia and in the test on OVCAR-4 ovarian was greater than 100 µM in each case.
With `C[N+](C)([O-])C12CC3CC(CC(C3)C1)C2`, the TGI in the test on SF-295 CNS is greater than 100 µM; with PC-3 prostate, greater than 100 µM; in the test on CAKI-1 renal it was greater than 100 µM; in the test on T-47D breast it was 85.7 µM; in the test with MOLT-4 leukemia, greater than 100 µM; in the test with OVCAR-4 ovarian, greater than 100 µM. In addition, the TGI in the test with HS 578T breast is greater than 100 µM.
`Nc1c(-c2ccccc2)c2ccc([N+](=O)[O-])cc2c(=O)n1-c1cccc(C(=O)O)c1`: the TGI in the test with SF-295 CNS, with PC-3 prostate, in the test on CAKI-1 renal, in the test on T-47D breast, with MOLT-4 leukemia and in the test on OVCAR-4 ovarian was greater than 100 µM each time. This compound had a TGI in the test with HS 578T breast greater than 100 µM.
With `COc1ccc(/C=C2\N=C3N(Cc4ccccc4)C=C(N)N3C2=O)cc1`, the TGI with SF-295 CNS, in the test on PC-3 prostate, in the test with CAKI-1 renal, in the test with T-47D breast, in the test on MOLT-4 leukemia and in the test on OVCAR-4 ovarian was greater than 100 µM each time. The same compound showed a TGI in the test with HS 578T breast of 73 µM.
